“Also recorded” adds a separate entry of the source. d = 2'-deoxy (DNA); r = 2'-OH (RNA)
Assays:
[1] = test system: FAM3B protein in HepG2 cells; assay: Western blot of FAM3B protein in transfected HepG2 cells; assay type: cell-based, human; conditions: 48 hours after transfection, Western blot grayscale, FIG. 5
Description: The cells are digested with 0.25% trypsin 24 hours before the transfection, then the cells are counted and inoculated into the 24 well plate in a density of 1×10^5 cells/ml, and 1000 μl cells are added in each well. Lipofectamine™ 2000 liposome from Invitrogen Company is used for the transfection with the small interfering nucleotides obtained from example 1 (FAM3B-1 to FAM3B-32) respectively, and unrelated small interfering nucleotide (the sense strand: 5-[…]-3 (SEQ ID NO: 78); the antisense strand: 5-ACGUGACACGUUC GGAGAATT-3 (SEQ ID NO: 79)) is used as the negative control.
(4) Inhibition on FAM3B Protein Expression by Using Small Interfering Nucleotides
After the cells transfected according to step (2) in example 6 are cultured for 48 hours, the cells are disrupted by using the protein lysis buffer and the total proteins are extracted, and the protein sample is examined according to the standard procedure for Western blot. For the detection of FAM3B protein, the membrane is incubated with the rabbit derived anti-FAM3B antibody (R&D systems), the secondary antibody is the peroxidase labelled horse anti-rabbit antibody (Zhongshan Jinqiao); the antibody for detecting the internal reference β-actin: the primary antibody is mouse derived anti-β-actin antibody, and the secondary antibody is the peroxidase labelled goat anti-mouse antibody, and the results are subjected to grayscale comparison shown as FIG. 5.

HepG2 cells = assay: inhibition of fat-emulsion-induced lipid accumulation in HepG2 cells, oil red O staining; assay type: cell-based, human; conditions: 20% fat emulsion induction 48 hours, 50 nM, 48 hours after transfection, FIG. 6
Description: (1) Induction of Lipid Accumulation in HepG2 Cells
The cells are inoculated in the 24 well culture plate in a density of 2×10^4 cells/1 mL, 20% fat emulsion for medical use is added in each well in a dosage of 2 ml/L, and the cells are cultured for 48 hours. The culture is stopped and oil red O staining is carried out to observe the lipids in the cells. The operations are as followed: the cells are rinsed with PBS for three times and 5 minutes each; then the cells are fixed with 50% isopropanol for 1 min and stained with oil red O for 10 min; the cells are rinsed with distilled water for three times and 1 min each; the cells are observed and photographed under a microscope. Normally, the cells might be not stained or only slightly stained, large amount of lipids accumulated in the cells after induction with fat emulsion for medical use, and red lipid droplets can be detected under the microscope after the staining with oil red O.
(2) Determination of the Inhibitory Effects on Lipid Accumulation in HepG2 Cells […]

[2] = test system: hyperlipemia model of mice; assay: TG and cholesterol levels in hepatic tissues of hyperlipemia model mice; assay type: in vivo; conditions: tail vein, daily for 7 days, FIG. 8
Source text: (§1) The hyperlipemia model of mice is induced by using high-fat feeds, the C57BL/6J mice are purchased from Vital River, male, three weeks old. The formula for the high fat feeds is as below: basic feeds 83.5%, […], 1% cholesterol, 10% pork fat, 0.2% propylthiouracil, 0.3% sodium deoxycholate, 5% sucrose, and it is produced by the experimental animal center of Academy of Military Medical Sciences. The hyperlipemia model of mice is obtained after induction for 3-4 weeks.
After the small interfering nucleotide of FAM3B gene FAM3B-46 is labelled with cholesterol or coated with liposome, it is injected into the hyperlipemia model of mice via their tail veins. The injection is carried out for continuous 7 days with one injection each day and the samples are collected after 7 days. The standard dosages for injection are 2.5 mg, 5 mg and 10 mg for every kilogram of body weight. Other dosages such as 0.1 mg-50 mg small interfering nucleotide for every kilogram of body weight are also under test. The products from Zhongsheng Beikong Biological Technological Co., Ltd. are used as the kit for detecting triglyceride (TG) and cholesterol, and they are determined on a SABA/18 automated biochemical analyzer. The detections are carried out with reference to the instruction for the kits of Biosino Bio-Technology and Science Incorporation. The animals are subjected to fast dieting 16 hours before blood sample collection.

[3] = test system: FAM3B protein in hepatic tissues; assay: FAM3B protein expression in hepatic tissues of hyperlipemia model mice; assay type: in vivo; conditions: tail vein, daily for 7 days
Source text: as §1
(§2) After the small interfering nucleotide of FAM3B gene FAM3B-46 is labelled with cholesterol or coated with liposome, it is injected into the hyperlipemia model of mice via their tail veins. The injection is carried out for continuous 7 days with one injection each day and the samples are collected after 7 days. The standard dosages for injection are 2.5 mg, 5 mg and 10 mg for every kilogram of body weight. Other dosages such as 0.1 mg-50 mg small interfering nucleotide for every kilogram of body weight are also under test.

FAM3B mRNA in intestine = assay: FAM3B mRNA expression in intestine of hyperlipemia model mice; assay type: in vivo; conditions: tail vein, daily for 7 days, FIG. 7
Source text: as §1, §2

[4] = test system: hepatic adipose infiltration model mice; assay: hepatic adipose infiltration model in mice (MCD diet), oil red O and HE staining of hepatic sections; assay type: in vivo; conditions: tail i.v. once every three days, 15 days, 2.5, 5 and 10 mg/kg, FIG. 2
Source text: (1) Induction on hepatic adipose infiltration model in mice. 10 male C57BL/6J mice (purchased from the department of experimental animals, Medical Division of Peking University) with age of 8-10 weeks are divided into two groups (normal diet and MCD diet). MCD (high-fat, methionine-choline deficient) diet is a common program for the investigations on non-alcoholic fatty liver in this field. The hepatic adipose infiltration model in mice is obtained after treatments for 10-16 weeks. (2) Treatments on Hepatic Adipose Infiltration Using Small Interfering Nucleotides
1.2 mg (0.09 μmol) small interfering nucleotides from FAM3B-43 to FAM3B-46 with modification in the example 3 is dissolved in 1.5 ml RNAase free sterilized physiological saline to prepare a solution comprising 60 μmol/L small interfering nucleotides, and it is mixed in certain proportion with the carrier material. The injection is obtained after the mixed small interfering nucleotide is added into 5 ml RNAase free sterile physiological saline (the concentration of the small interfering nucleotide is 0.25 mg/ml). […]

[5] = test system: FAM3B protein in intestine; assay: FAM3B protein expression in intestine of hyperlipemia model mice; assay type: in vivo; conditions: tail vein, daily for 7 days
Source text: as §1, §2

[6] = test system: hyperlipemia model of mice; assay: TG and cholesterol levels in blood of hyperlipemia model mice; assay type: in vivo; conditions: tail vein, daily for 7 days, FIG. 9
Source text: as §1, §2

[7] = standard dosages 2.5, 5, 10 mg/kg
[8] = standard dosages and 10 mg/kilogram body weight

Substance: FAM3B-11: siRNA, human FAM3B; sense 5′-CUCUGGACCGAUGACAAAGdTdT-3′; antisense 5′-CUUUGUCAUCGGUCCAGAGdTdT-3′ (sense CUCUGGACCGAUGACAAAGTT; antisense CUUUGUCAUCGGUCCAGAGTT; sugars from the 5' end r19 d2, backbone not given here)
- inhibition of FAM3B protein expression in HepG2 cells [1]: significantly inhibit

Substance: FAM3B-15: siRNA, human FAM3B; sense 5′-GCACUUGGAAGUAAAGAAAdTdT-3′; antisense 5′-UUUCUUUACUUCCAAGUGCdTdT-3′ (sense GCACUUGGAAGUAAAGAAATT; antisense UUUCUUUACUUCCAAGUGCTT; sugars from the 5' end r19 d2, backbone not given here)
- inhibition of FAM3B protein expression in HepG2 cells [1]: significantly inhibit

Substance: FAM3B-17: siRNA, human FAM3B; sense 5′-GGUCUAGCUGGGUAUUUAUdTdT-3′; antisense 5′-AUAAAUACCCAGCUAGACCdTdT-3′ (sense GGUCUAGCUGGGUAUUUAUTT; antisense AUAAAUACCCAGCUAGACCTT; sugars from the 5' end r19 d2, backbone not given here)
- inhibition of FAM3B protein expression in HepG2 cells [1]: significantly inhibit

Substance: FAM3B-20: siRNA, human FAM3B; sense 5′-GCUAAGAACAACAGAUAUUdTdT-3′; antisense 5′-AAUAUCUGUUGUUCUUAGCdTdT-3′ (sense GCUAAGAACAACAGAUAUUTT; antisense AAUAUCUGUUGUUCUUAGCTT; sugars from the 5' end r19 d2, backbone not given here)
- inhibition of fatty deposition in HepG2 cells (HepG2 cells): significantly inhibit fatty deposition
- inhibition of FAM3B protein expression in HepG2 cells [1]: significantly inhibit

Substance: FAM3B-24: siRNA, human FAM3B; sense 5′-GAGUAAAUGUGUUCUGUAUdTdT-3′; antisense 5′-AUACAGAACACAUUUACUCdTdT-3′ (sense GAGUAAAUGUGUUCUGUAUTT; antisense AUACAGAACACAUUUACUCTT; sugars from the 5' end r19 d2, backbone not given here)
- inhibition of FAM3B protein expression in HepG2 cells [1]: significantly inhibit

Substance: FAM3B-46: chemically modified mouse FAM3B siRNA (2′-O-methyl sense with cholesterol, 2′-fluoro antisense); 5-UCAGAAAUCGAGAGAGAAAdTdT; 5-UUUCUCUCUCGAUUUCUGAdTdT (sense UCAGAAAUCGAGAGAGAAATT; antisense UUUCUCUCUCGAUUUCUGATT; Sense 2'-OMe, antisense 2'-F at italic positions, sense cholesterol at terminus, further chemistry not given here)
- reduction of TG level in hepatic tissues ([2]; 5 mg and 10 mg/kilogram body weight): 20-40%
- reduction of cholesterol level in hepatic tissues ([2]; 10 mg/kilogram body weight): 15-30%
- reduction of TG level in hepatic tissues [2]: significantly reduce
- reduction of cholesterol level in hepatic tissues [2]: significantly reduce
- reduction of FAM3B protein expression in hepatic tissues [3, 7]: 40%
- reduction of FAM3B mRNA expression in intestine (FAM3B mRNA in intestine): significantly inhibit
- reduction of FAM3B mRNA expression in intestine (FAM3B mRNA in intestine; [7]): 45%
- degree of hepatic adipose infiltration (oil red O and HE staining) [4]: effectively reduce the degree of hepatic adipose infiltration; also recorded: significantly reduced
- reduction of FAM3B protein expression in intestine [5, 7]: 30%
- reduction of TG level in blood [6]: significantly reduce
- reduction of cholesterol level in blood [6]: significantly reduce
- reduction of TG level in blood [6, 8]: 25-50%
- reduction of cholesterol level (cholesterol level in blood examined; printed 'in hepatic tissues') [6, 8]: 25-50%

Substance: unrelated small interfering nucleotide: negative control siRNA; sense 5-UUCUCCGAACGUGUCACGUTT-3 (SEQ ID NO: 78); antisense 5-ACGUGACACGUUCGGAGAATT-3 (SEQ ID NO: 79) (chemistry not given here) [reference compound]
- reduction of TG level in hepatic tissues [2]: could not significantly reduce
- reduction of cholesterol level in hepatic tissues [2]: could not significantly reduce
- reduction of FAM3B protein expression in hepatic tissues [3]: could not significantly reduce
- reduction of FAM3B mRNA expression in intestine (FAM3B mRNA in intestine): could not significantly reduce
- reduction of FAM3B protein expression in intestine [5]: could not significantly reduce
- reduction of TG level in blood [6]: could not significantly reduce
- reduction of cholesterol level in blood [6]: could not significantly reduce
